In paper PMC4932537, “Search for Potent and Selective Aurora A Inhibitors Based on General Ser/Thr Kinase Pharmacophore Model” (Pharmaceuticals, 2016):
Structures can show the parent of a compound that is named as a salt. Where two headings read alike, the source gives them in different places.

How the values were obtained:
Aurora A = molecular target: T1, Aurora A (Homo sapiens, UniProt O14965); experiment: Aurora A kinase inhibition (biochemical assay)
T1 sequence (O14965 1-403): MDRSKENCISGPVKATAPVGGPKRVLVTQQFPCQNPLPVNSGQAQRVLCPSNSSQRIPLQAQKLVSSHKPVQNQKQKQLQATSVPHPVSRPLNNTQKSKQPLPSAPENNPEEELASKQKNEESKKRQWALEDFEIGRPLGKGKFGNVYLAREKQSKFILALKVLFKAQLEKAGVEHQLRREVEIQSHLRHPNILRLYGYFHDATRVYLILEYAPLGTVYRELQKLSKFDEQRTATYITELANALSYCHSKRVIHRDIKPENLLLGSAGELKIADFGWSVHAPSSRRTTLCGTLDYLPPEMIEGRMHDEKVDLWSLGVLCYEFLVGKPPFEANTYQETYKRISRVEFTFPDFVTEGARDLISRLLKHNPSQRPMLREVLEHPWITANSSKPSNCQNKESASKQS

Haspin = molecular target: T2, Haspin (Homo sapiens, UniProt Q8TF76); experiment: Haspin kinase inhibition; assay type: biochemical; conditions: Table 1
T2 sequence (Q8TF76 1-798): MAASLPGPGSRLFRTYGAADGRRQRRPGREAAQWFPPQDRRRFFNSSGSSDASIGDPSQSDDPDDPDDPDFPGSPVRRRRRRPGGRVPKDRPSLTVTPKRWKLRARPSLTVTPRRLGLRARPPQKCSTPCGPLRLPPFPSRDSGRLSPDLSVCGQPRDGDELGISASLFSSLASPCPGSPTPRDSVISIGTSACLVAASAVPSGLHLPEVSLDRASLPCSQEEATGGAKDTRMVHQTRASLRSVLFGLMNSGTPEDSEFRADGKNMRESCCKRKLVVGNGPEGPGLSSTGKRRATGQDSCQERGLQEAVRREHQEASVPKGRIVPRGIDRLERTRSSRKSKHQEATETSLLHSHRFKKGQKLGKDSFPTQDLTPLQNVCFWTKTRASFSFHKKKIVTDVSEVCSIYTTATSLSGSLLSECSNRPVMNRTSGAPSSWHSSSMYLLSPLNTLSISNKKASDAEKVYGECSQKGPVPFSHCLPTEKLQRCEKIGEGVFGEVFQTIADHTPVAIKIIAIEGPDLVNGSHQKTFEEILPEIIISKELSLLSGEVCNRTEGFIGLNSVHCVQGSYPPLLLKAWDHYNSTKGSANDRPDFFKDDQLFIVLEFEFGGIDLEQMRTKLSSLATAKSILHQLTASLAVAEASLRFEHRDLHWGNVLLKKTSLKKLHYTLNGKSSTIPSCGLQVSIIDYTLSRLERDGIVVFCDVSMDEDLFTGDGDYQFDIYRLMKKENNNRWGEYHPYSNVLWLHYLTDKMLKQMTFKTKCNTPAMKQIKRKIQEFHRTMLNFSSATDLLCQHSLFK
Text: Table 1 Activity of compounds fitting to general pharmacophore model against selected Ser/Thr kinases. | column: Haspin, IC50, μM

Aurora B = Aurora B (Homo sapiens, UniProt Q96GD4); experiment: Aurora B kinase inhibition; assay type: biochemical; conditions: Table 1
[1] = test system: Colo-320 (colon carcinoma); experiment: MTT cytotoxicity, Colo-320; assay type: cell-based; conditions: Homo sapiens; Colo-320, MTT, 72 h
Text: (§1) All cells lines were purchased in ATCC (Manassas, VA, USA), except for human primary fibroblasts (HFB), which were a generous gift from Dashinimaev E.B. (Koltsov Institute of Developmental Biology). H1299 (lung adenocarcinoma), H23 (lung adenocarcinoma), Colo320 (colon carcinoma), RS4;11 (acute lymphoblastic leukemia), PC3 (prostate adenocarcinoma) and HL-60 (acute promyelocytic leukemia) were cultivated in RPMI-1640 medium, with addition of 10% fetal calf serum (HyClone, South Logan, Utah, USA) and 2 mM L-Glutamine at 37 °C, 5% CО2. MDA-MB-453 (mammary adenocarcinoma), A549 (lung adenocarcinoma), HCT-116 (colon carcinoma), A431 (epidermoid carcinoma), MDA-MB-231 (mammary adenocarcinoma), BxPC3 (pancreatic adenocarcinoma), MEF (mouse embryonic fibroblasts, SV-40 immortalized), MEF Bax^−/−/Bak^−/− knockout cells (mouse embryonic fibroblasts, SV-40 immortalized, resistant to apoptosis) were cultivated in DMEM medium, with addition of 10% fetal calf serum (HyClone) and 2 mM L-Glutamine at 37 °C, 5% CО2.
(§2) Cells were seeded in 96-well plates (Corning, NY, USA): 5000 cells per well for adhesive cultures and cells, 25,000 cells per well for suspension cultures. Analyzed substances were added in 0.1–50 μM concentration range, with 2 × dilutions, and incubated for 72 h at 37 °C, 5% CО2. After incubation 20 uL of 5 mg/mL of water solution of 3-(4,5-dimethylthiazol-2-yl)-2,5-diphenyltetrazolium bromide (MTT, PANEKO, Moscow, Russia) was added to the cells and they were incubated for additional 4 h. After the incubation the medium was aspirated, cells were dissolved in 100 uL of DMSO and the optical density was measured at 570 nm with a МultiscanFC plate reader (ThermoScientific, Cambridge, MA, USA). The percentage of surviving cells at each dose was calculated by dividing the optical density of treated cells by the optical density of untreated control (which was taken as 100%). The IC50s were calculated in GraphPad Prism 5.0.

[2] = test system: MDA-MB231 (mammary adenocarcinoma); experiment: MTT cytotoxicity, MDA-MB231; assay type: cell-based; conditions: Homo sapiens, MDA-MB-231, 72 h
Text: as §1, §2

[3] = test system: H1299 (lung adenocarcinoma); experiment: MTT cytotoxicity, H1299; assay type: cell-based; conditions: Homo sapiens, NCI-H1299, 72 h
Text: as §1, §2

[4] = test system: PC3 (prostate adenocarcinoma); experiment: MTT cytotoxicity, PC3; assay type: cell-based; conditions: 72 h
Text: as §1, §2

[5] = test system: BxPC3 (pancreatic adenocarcinoma); experiment: MTT cytotoxicity, BxPC3; assay type: cell-based; conditions: Homo sapiens, BXPC-3, 72 h
Text: as §1, §2

[6] = test system: RS4;11 (acute lymphoblastic leukemia); experiment: MTT cytotoxicity, RS4;11; assay type: cell-based; conditions: Homo sapiens; RS4;11, MTT, 72 h
Text: as §1, §2

[7] = test system: HL-60 (acute promyelocytic leukemia); experiment: MTT cytotoxicity, HL-60; assay type: cell-based; conditions: Homo sapiens; HL-60, MTT, 72 h
Text: as §1, §2

[8] = test system: A-549 (lung adenocarcinoma); experiment: MTT cytotoxicity, A-549; assay type: cell-based; conditions: Homo sapiens, A549; A-549, MTT, 72 h
Text: as §1, §2

[9] = test system: H23 (lung adenocarcinoma); experiment: MTT cytotoxicity, H23; assay type: cell-based; conditions: 72 h
Text: as §1, §2

[10] = test system: A431 (epidermoid carcinoma); experiment: MTT cytotoxicity, A431; assay type: cell-based; conditions: Homo sapiens, A-431, 72 h
Text: as §1, §2

[11] = test system: HCT-116 (colon carcinoma); experiment: MTT cytotoxicity, HCT-116; assay type: cell-based; conditions: Homo sapiens; HCT-116, MTT, 72 h
Text: as §1, §2

[12] = MTT cytotoxicity, MEFs Dko; assay type: cell-based; conditions: mouse, MEFs Dko (bax−/−bak−/−)
Text: as §1, §2

[13] = test system: MDA-MB-453 (mammary adenocarcinoma); experiment: MTT cytotoxicity, MDA-MB-453; assay type: cell-based; conditions: Homo sapiens; MDA-MB-453, MTT, 72 h
Text: as §1, §2

MTT cytotoxicity, HFB = assay type: cell-based; conditions: human, human primary fibroblasts (HFB)
Text: as §1, §2

MTT cytotoxicity, MEF WT = assay type: cell-based; conditions: mouse
Text: as §1, §2

[14] = Table 1, read-out: Aurora A, IC50
[15] = Table 2, Mean ± SEM, four repeats, read-out: Aurora A kinase inhibition IC50

Sequence of Aurora B (Q96GD4 whole entry): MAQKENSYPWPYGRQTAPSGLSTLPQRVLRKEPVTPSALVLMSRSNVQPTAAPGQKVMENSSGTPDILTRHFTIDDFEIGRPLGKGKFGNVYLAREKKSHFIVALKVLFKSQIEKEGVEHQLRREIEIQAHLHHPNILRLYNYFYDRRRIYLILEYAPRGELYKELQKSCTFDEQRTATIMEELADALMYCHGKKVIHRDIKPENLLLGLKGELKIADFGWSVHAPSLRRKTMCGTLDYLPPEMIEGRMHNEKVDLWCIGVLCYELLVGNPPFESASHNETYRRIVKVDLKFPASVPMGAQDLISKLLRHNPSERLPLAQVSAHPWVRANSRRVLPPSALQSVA

| Compound | IC50 (Aurora A; [14]) [µM] | IC50 (Haspin) [µM] | IC50 (Aurora B) [µM] | IC50 [1] [µM] | IC50 [2] [µM] | IC50 [3] [µM] | IC50 [4] [µM] | IC50 [5] [µM] | IC50 [6] [µM] | IC50 [7] [µM] | IC50 (Aurora A; [15]) [µM] | IC50 [8] [µM] | IC50 [9] [µM] | IC50 [10] [µM] | IC50 [11] [µM] | melting point [°C] | IC50 at 48 h [12] [µM] | IC50 [13] [µM] | IC50 at 72 h (MTT cytotoxicity, HFB) [µM] | IC50 at 48 h (MTT cytotoxicity, MEF WT) [µM] |
| --- | --- | --- | --- | --- | --- | --- | --- | --- | --- | --- | --- | --- | --- | --- | --- | --- | --- | --- | --- | --- |
| CCCc1cnc(Nc2cc(CC)nc(C3CCN(C(=O)C(C)(C)N)CC3)n2)s1 [Compound 8, 2-Amino-1-(4-(4-ethyl-6-(5-propylthiazol-2-ylamino)pyrimidin-2-yl)piperidin-1-yl)-2-methylpropan-1-one] | 3.58 ± 0.43 | 2.9 ± 0.43 | 2.05 ± 0.24 | – | – | – | – | – | – | – | – | – | – | – | – | – | – | – | – | – |
| CC(C)(N)C(=O)N1CCC(c2cccc(Nc3ncc(-c4ccccc4)s3)n2)CC1 [Compound 9, 2-Amino-2-methyl-1-(4-(6-(5-phenylthiazol-2-ylamino)pyridine-2-yl)propan-1-one hydrochloride] | 3.17 ± 0.33 | 0.27 ± 0.019 | 8.02 ± 0.8 | – | – | – | – | – | – | – | – | – | – | – | – | – | – | – | – | – |
| O=C(C1CNCCO1)N1CCC(c2cccc(Nc3ncc(-c4ccccc4)s3)n2)CC1 (stereo not drawn) [Compound 10, Morpholin-2-yl(4-(6-(5-phenylthiazol-2-ylamino)pyridin-2-yl)piperidin-1-yl)methanone] | 8.38 ± 0.84 | 7.8 ± 0.81 | 0.84 ± 0.09 | – | – | – | – | – | – | – | – | – | – | – | – | – | – | – | – | – |
| Cc1cc(Nc2ncc(C)s2)nc(CC2CCN(C(=O)c3cccc(Cl)c3F)CC2)n1 [Compound 11, (3-Chloro-2-fluoro-phenyl)-{4-[4-methyl-6-(5-methyl-thiazol-2-ylamino)-pyrimidin-2-ylmethyl]-piperidin-1-yl}-methanone] | – | – | – | 0.8 ± 0.09 | 7.3 ± 0.8 | 1.7 ± 0.2 | 3.2 ± 0.2 | 2 ± 0.021 | 0.5 ± 0.04 | 5.4 ± 0.3 | 0.012 ± 0.0011 | 5.6 ± 0.5 | 3.9 ± 0.15 | 4.6 ± 0.5 | 3 ± 0.4 | 211 to 213 | 3.1 ± 0.32 | 10 ± 1.2 | 3.6 ± 0.4 | 1 ± 0.2 |
| Cc1cc(Nc2nccs2)nc(CC2CCN(C(=O)c3cccc(Cl)c3F)CC2)n1 [Compound 12, (3-Chloro-2-fluoro-phenyl)-{4-[4-methyl-6-(thiazol-2-ylamino)-pyrimidin-2-ylmethyl]-piperidin-1-yl}-methanone] | – | – | – | 2 ± 0.15 | 28.2 ± 0.3 | 5 ± 0.4 | 6 ± 0.7 | 6 ± 0.59 | 1.5 ± 0.2 | 39.8 ± 3.4 | 0.0351 ± 0.00036 | 10 ± 1.2 | 6.8 ± 0.5 | 10.2 ± 1.2 | 6.5 ± 0.7 | 207 to 209 | 11.8 ± 1.2 | 16.3 ± 1.7 | 3.8 ± 0.4 | 5.8 ± 0.5 |
| Cc1cc(Nc2cccc(CC3CCN(C(=O)c4cccc(Cl)c4F)CC3)n2)[nH]n1 [Compound 15, (3-Chloro-2-fluoro-phenyl)-{4-[6-(5-methyl-2H-pyrazol-3-ylamino)-pyridin-2-ylmethyl]-piperidin-1-yl}-Methanone] | – | – | – | 1 ± 0.12 | > 50 | 3.7 ± 0.3 | 9.7 ± 1 | 7.2 ± 0.6 | 0.1 ± 0.02 | 38.8 ± 3.2 | 0.0175 ± 0.0021 | 5.7 ± 0.6 | > 50 | 6.8 ± 0.7 | 2.8 ± 0.3 | 120 to 122 | 3 ± 0.2 | 5.7 ± 0.6 | 3 ± 0.2 | 0.9 ± 0.08 |
